Data from patent publication EP4656640A1, “IRAK4 DEGRADER AND USE THEREOF” (Shanghai Qilu Pharmaceutical Research and Development …, priority 2023, dated 2024).
pIC50: −log10 of the molar value. Read-outs that look alike come from different tables or passages of the source.

Key:
[1] = system: IL-6 secretion; experiment: Inhibition of induced IL-6 secretion in human PBMCs (CBA); assay type: cell-based; conditions: PBMC
Experimental: The effect of PROTAC small molecules on inflammatory factors in PBMCs downstream of IRAK4 induced by TLR and IL-1 was detected based on the CBA (cytometric bead array) method.
Step 2: The density of PBMCs was adjusted to 1 E6/mL, and 150 µL of PBMCs in 1640 complete medium were seeded into a 96-well plate, followed by incubation at 37°C for 1 hour.
Step 3: 50 µL of serially diluted small molecule (working concentration: 10000 nM, 1:3 dilution) drugs were inoculated into the plate in a 37°C incubator for 8 hours.
Step 4: 10 µL of stimulants were added respectively, with final concentrations of 100 ng/mL for LPS, 1 µg/mL for R848, and 100 ng/mL for IL-1β.
Step 5: CBA assay. The concentrations of IL-6 and TNF-α in the cell culture supernatant were determined using Hu IL-6 CBA Flex Set A7 and Hu TNF- CBA Flex Set D9.
Step 6: Standard samples were prepared: 2500 pg/mL, 1250 pg/mL,...0. A 1:2 serial dilution was performed to obtain 10 concentrations.
Step 7: The mixed capture beads were resuspended in capture bead diluent (1:50), and cell culture supernatant (50 µL) was added, followed by incubation at room temperature for 10 minutes.
Step 8: The detection reagent prepared with detection diluent was added, and the mixture was incubated in the dark at room temperature for 3 hours. At the end of incubation, the samples were washed once with wash buffer and resuspended for detection.
The concentrations of IL-6 and TNFα were calculated using the standard curve method. Data presentation and IC50 calculation were performed using Prism 8.0.2.

[2] = Mouse pharmacokinetics, oral (Experiment 1); assay type: in vivo, C57BL/6 mice; conditions: mice, PO 100 mg/kg, fasted overnight, plasma
Experimental: C57BL/6 mice were used as test animals to study the pharmacokinetic behavior of the compounds of the present disclosure in mouse plasma after oral administration at a dose of 100 mg/kg.
C57BL/6, male, transferred from the animal repository of the laboratory institution (999M-018).
Three male C57BL/6 mice were fasted overnight (10-14 hours) with free access to water one day before administration. The mice were fed 4 hours after administration. The dose for PO administration was 100 mg/kg, with an administration volume of 20 mL/kg.
After administration, blood samples (0.03 mL) were collected from the mice via venipuncture at 0.083, 0.25, 0.5, 1, 2, 4, 8, and 24 hours. The samples were placed in EDTA-K2 tubes and centrifuged at 6800 rpm for 5 minutes at 2-8°C. The plasma was separated and stored at -80°C.
• 1) 10 µL of plasma sample was added to 200 µL of methanol for precipitation. After mixing, the mixture was centrifuged at 18000 g for 10 minutes. • 2) The processed supernatant solution was taken for LC/MS/MS analysis to determine the concentration of the test compound.
• Liquid phase conditions: Shimadzu LC-30AD pump • Mass spectrometry conditions: AB Sciex API 5500 mass spectrometer • Chromatographic column: Phenomenex Kinetex 2.6 µm C18 50 3.0 mm • Mobile phase: Solution A was 0.1% formic acid in water, and solution B was 0.1% formic acid in acetonitrile • Flow rate: 0.6 mL/min • Elution time: Gradient elution for 0-1.6 minutes.
The main pharmacokinetic parameters were calculated using WinNonlin 8.0.

[3] = target: T1, IRAK4 (Mus musculus, UniProt Q8R4K2); experiment: In vivo degradation of IRAK4 in mouse spleen, IL-33 model (LC-MS); set-up: species or system C57BL/6J mice; conditions: Example 22 at 50 mpk, comparable drug concentrations in the spleen, FIG. 2
T1 sequence (Q8R4K2 1-459): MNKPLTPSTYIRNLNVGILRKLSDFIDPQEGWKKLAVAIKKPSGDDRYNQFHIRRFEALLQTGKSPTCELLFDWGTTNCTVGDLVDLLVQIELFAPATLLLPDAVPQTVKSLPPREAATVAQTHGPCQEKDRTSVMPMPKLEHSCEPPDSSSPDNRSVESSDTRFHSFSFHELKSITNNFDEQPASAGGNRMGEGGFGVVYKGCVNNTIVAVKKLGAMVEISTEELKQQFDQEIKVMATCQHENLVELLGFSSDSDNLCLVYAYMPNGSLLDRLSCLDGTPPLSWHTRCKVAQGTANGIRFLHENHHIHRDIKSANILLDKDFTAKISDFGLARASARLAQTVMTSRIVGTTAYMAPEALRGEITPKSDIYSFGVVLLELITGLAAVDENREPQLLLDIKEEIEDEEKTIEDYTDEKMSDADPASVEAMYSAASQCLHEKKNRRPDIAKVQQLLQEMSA

[4] = mice, 8 hours after last administration
Experimental: Experimental animals: SPF-grade male C57BL/6J mice aged 6-8 weeks.
Preparation of compound: 10% DMSO + 50% PEG400 + 40% sterile water for injection. The compound was dissolved in DMSO, followed by the addition of PEG400 and sterile water for injection, and the solution was adjusted to clarity with 6N hydrochloric acid.
Compound administration and IL-33 inflammatory induction: The mice were randomly grouped according to body weight and orally administered with the compound at final doses of 15 mg/kg, 50 mg/kg, and 150 mg/kg, twice daily. At 4 hours after the last administration of the compound, the mice were intraperitoneally injected with 1 µg/100 µL PBS of IL-33 for inflammatory induction.
Termination, sample collection, and data: Plasma, peritoneal lavage fluid, and spleen were collected for subsequent sample index detection.
The experiment was terminated 8 hours after the last administration. The mice were anesthetized, and cardiac blood was collected. The blood samples were anticoagulated with EDTA-K2, centrifuged at 3500 rpm for 15 minutes, and the upper plasma was collected.

[5] = target: hERG potassium channel (Homo sapiens, UniProt Q12809); experiment: Inhibition of hERG potassium channel, whole-cell manual patch clamp in CHO-hERG cells; conditions: @ 1 µM test compound
Sequence of hERG potassium channel (Q12809 whole entry): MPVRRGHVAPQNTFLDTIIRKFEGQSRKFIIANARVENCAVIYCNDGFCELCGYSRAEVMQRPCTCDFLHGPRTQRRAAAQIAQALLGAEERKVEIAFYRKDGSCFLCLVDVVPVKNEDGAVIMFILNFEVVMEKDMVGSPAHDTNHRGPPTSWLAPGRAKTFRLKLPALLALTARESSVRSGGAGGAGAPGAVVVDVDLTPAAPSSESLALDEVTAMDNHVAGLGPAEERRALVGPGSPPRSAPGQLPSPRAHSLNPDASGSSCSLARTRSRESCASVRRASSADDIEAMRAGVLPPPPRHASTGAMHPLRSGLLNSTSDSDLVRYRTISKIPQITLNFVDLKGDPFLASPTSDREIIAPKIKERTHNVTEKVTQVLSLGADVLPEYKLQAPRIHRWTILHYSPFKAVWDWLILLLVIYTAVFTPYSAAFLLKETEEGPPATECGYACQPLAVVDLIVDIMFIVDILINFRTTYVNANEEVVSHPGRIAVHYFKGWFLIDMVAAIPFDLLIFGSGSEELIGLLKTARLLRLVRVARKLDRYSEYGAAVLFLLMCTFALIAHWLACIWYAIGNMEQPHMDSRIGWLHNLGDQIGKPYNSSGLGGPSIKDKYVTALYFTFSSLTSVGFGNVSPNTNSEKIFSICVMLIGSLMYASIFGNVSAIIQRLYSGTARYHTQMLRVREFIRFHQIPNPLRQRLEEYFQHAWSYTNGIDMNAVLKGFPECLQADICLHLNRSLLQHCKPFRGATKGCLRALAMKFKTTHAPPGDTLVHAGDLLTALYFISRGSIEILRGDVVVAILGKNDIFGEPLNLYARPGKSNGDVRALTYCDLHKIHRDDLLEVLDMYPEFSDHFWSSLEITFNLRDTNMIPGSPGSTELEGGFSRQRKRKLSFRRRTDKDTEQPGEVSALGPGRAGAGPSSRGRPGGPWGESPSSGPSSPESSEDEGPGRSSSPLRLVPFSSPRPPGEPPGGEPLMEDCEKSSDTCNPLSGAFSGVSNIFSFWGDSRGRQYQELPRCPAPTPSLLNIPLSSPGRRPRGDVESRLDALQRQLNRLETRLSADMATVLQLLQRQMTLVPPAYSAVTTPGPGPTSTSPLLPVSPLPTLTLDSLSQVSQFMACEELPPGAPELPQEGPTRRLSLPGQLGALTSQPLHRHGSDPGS
Experimental: The effects of compounds on hERG potassium channel (human Ether-a-go-go Related Gene potassium channel) currents were tested using the whole-cell manual voltage-clamp electrophysiological method.
CHO cells stably expressing hERG were cultured in cell culture dishes with a diameter of 35 mm and incubated at 37°C in a 5% CO2 incubator. The cells were passaged at a ratio of 1:5 every 48 hours. The culture medium was formulated as follows: 90% F12 (Invitrogen), 10% fetal bovine serum (Gibco), 100 g/mL G418 (Invitrogen), and 100 g/mL Hygromycin B (Invitrogen). On the day of the experiment, the cell culture medium was aspirated, and the cells were rinsed once with extracellular solution. […] The digestion solution was aspirated, and the cells were resuspended in extracellular solution and then transferred to experimental dishes for electrophysiological recording for later use.
On the day of testing, the compounds were prepared as 10 mM stock solutions in DMSO, then diluted to 1 mM with DMSO, and further diluted 1000-fold with extracellular solution to obtain the desired final test concentration.
hERG potassium channel currents were recorded at room temperature using the whole-cell patch-clamp technique in CHO cells stably expressing the hERG channel. The glass microelectrode was prepared by pulling the glass electrode blank (BF150-86-10, Sutter) with a puller, and the tip resistance after filling with the internal electrode solution was about 2-5 MΩ. The glass microelectrode was inserted into the amplifier probe and then connected to the patch-clamp amplifier. The clamping voltage and data recording were controlled and recorded by pClamp software via a computer, with a sampling frequency of 10 kHz and a filtering frequency of 2 kHz. After obtaining the whole-cell recording, cells were clamped at -100 mV. The hERG potassium current (IhERG) was evoked by applying a 2 s depolarizing voltage step from -100 mV to +20 mV, followed by repolarization to -50 mV for 1 s before returning to -100 mV. […]
Data were analyzed and processed using pClamp, GraphPad Prism 8 and Excel software. […]

[6] = Mouse pharmacokinetics, oral (Experiment 2); assay type: in vivo, C57BL/6 mice; conditions: mice, PO 100 mg/kg, free access to food, plasma
Experimental: Two male C57BL/6 mice were allowed free access to food and water. The dose for PO administration was 100 mg/kg, with an administration volume of 10 mL/kg.
After administration, blood samples (0.025 mL) were collected from the mice via venipuncture at 0.083, 0.25, 0.5, 1, 2, 4, 8, and 24 hours. The samples were placed in EDTA-K2 tubes and centrifuged at 2000 g for 5 minutes at 4°C. The plasma was separated and stored at -70°C.
• 1) 5 µL of plasma sample was added to 100 µL of acetonitrile for precipitation. After mixing, the mixture was centrifuged at 5800 rmp for 10 minutes. • 2) The processed supernatant solution was taken for LCMS/MS analysis to determine the concentration of the test compound.
• LC-MS/MS instrument: LCMS/MS-45 (Triple Quad 6500+) • Chromatographic column: Waters BEH C18 (2.1 × 50 mm, 1.7 µm) • Mobile phase: Solution A was H2O-0.025% FA-1 mM NH4OAc, and Solution B was MeOH-0.025% FA-1 mM NH4OAc. • Flow rate: 0.6 mL/min • Elution time: Gradient elution for 0-2.5 minutes.
The main pharmacokinetic parameters were calculated using WinNonlin 8.2. […] Table 7. Pharmacokinetic parameters of some compounds of the present disclosure administered orally to mice

[7] = IL-1β 100 ng/mL, read-out: IC50 of compounds against induced secretion, IL-6, IL-1β
[8] = LPS 100 ng/mL, read-out: IC50 of compounds against induced secretion, IL-6, LPS
[9] = R848 1 µg/mL, read-out: IC50 of compounds against induced secretion, IL-6, R848

Cn1c(=O)n(C2CCC(=O)NC2=O)c2cccc(C#CCCN3CCC4(CC3)CC(n3cc(NC(=O)c5cnn6ccc(N7C[C@H]8C[C@@H]7CO8)nc56)c(C(F)F)n3)C4)c21 (stereo partly drawn) [Example 22]
pIC50 [1, 7]: 9.00 | pIC50 [1, 8]: 9.30 | pIC50 [1, 9]: 9.80 | AUC(0-inf) [2]: 18400 ng·h/mL | AUC(0-t) at 24 h [2]: 17600 ng·h/mL | Cmax [2]: 1400 ng/mL | MRT inf [2]: 8 h | Tmax [2]: 1.7 h | half-life [2]: 5.4 h | degradation effect of IRAK4 in mouse spleen compared with KT-474 at 150 mpk [3]: 2-3 times | C8hr Plasma ([4]; PO 15 mpk twice daily): 54 ng/mL | C8hr Spleen ([4]; PO 15 mpk twice daily): 369 ng/mL | C8hr Plasma ([4]; PO 50 mpk twice daily): 517 ng/mL | C8hr Spleen ([4]; PO 50 mpk twice daily): 6135 ng/mL | C8hr Plasma ([4]; PO 150 mpk twice daily): 1392 ng/mL | C8hr Spleen ([4]; PO 150 mpk twice daily): 16257 ng/mL | hERG (inhibition%) [5]: 36% @ 1 µM

Cn1c(=O)n(C2CCC(=O)NC2=O)c2cccc(C#CCOC34CCC(CN5CCC6(CC5)CC(n5cc(NC(=O)c7cnn8ccc(N9C[C@H]%10C[C@@H]9CO%10)nc78)c(C(F)F)n5)C6)(CC3)CC4)c21 (stereo partly drawn) [Example 52]
pIC50 [1, 7]: 8.05 | pIC50 [1, 8]: 8.08 | pIC50 [1, 9]: 7.69 | AUC(0-t) at 24 h [6]: 40100 ng·h/mL | Cmax [6]: 2200 ng/mL | Tmax [6]: 8 h | hERG (inhibition%) [5]: 16% @ 1 µM
